Where two headings read alike, the source gives them in different places.
Assay: Liquid dish neat product liquid-air partition coefficient
Format: physicochemical
[1] = class code letter within Comment Code

Compound	Log of liquid dish neat product liquid-air partition coefficient (Comment Code K/L)	Log of liquid dish neat product liquid-air partition coefficient (Comment Code K/L) [1]	Comment Code: Log of liquid dish neat product liquid-air partition coefficient (code letters K, L)	also measured
CC(C)=CCC/C(C)=C/CC/C(C)=C/CO [Material 1065]	K (Log of liquid dish neat product liquid-air partition coefficient greater than or equal to −7)			
C=CC(O)(CC)CCC=C(C)C (stereo not drawn) [Material 390]		K (Log of liquid dish neat product liquid-air partition coefficient greater than or equal to −7)		
CC(C)(O)CCC1CCCCC1 [Material 496]			K (Log of liquid dish neat product liquid-air partition coefficient greater than or equal to −7)	
CC(C)C1=CCC(C)(O)CC1 (stereo not drawn) [Material 982]	K (Log of liquid dish neat product liquid-air partition coefficient greater than or equal to −7)			
COc1ccc(C(C)=O)cc1 [Material 761]			K (Log of liquid dish neat product liquid-air partition coefficient greater than or equal to −7)	
CC(C)c1ccc(CC=O)cc1 [Material 977]			K (Log of liquid dish neat product liquid-air partition coefficient greater than or equal to −7)	
CCCCCC(=O)OCc1ccco1 [Material 338]		K (Log of liquid dish neat product liquid-air partition coefficient greater than or equal to −7)		
C=C(C)C1CCC(C)(OC(C)=O)CC1 (stereo not drawn) [Material 611]	K (Log of liquid dish neat product liquid-air partition coefficient greater than or equal to −7)			
CC1(C)C2CCC3(C2)C1C1(CCC3(C)C)OCCO1 (stereo not drawn) [Material 1144]			K (Log of liquid dish neat product liquid-air partition coefficient greater than or equal to −7)	Comment Code: Log of liquid dish neat product liquid-air partition coefficient (codes K/L of the Comment Code, Table 1): K (Log of liquid dish neat product liquid-air partition coefficient greater than or equal to −7)
CCCCCCCCOC(=O)c1ccco1 [Material 28]		K (Log of liquid dish neat product liquid-air partition coefficient greater than or equal to −7)		
CCCCOC(=O)C(C)OC(=O)CCC (stereo not drawn) [Material 595]	K (Log of liquid dish neat product liquid-air partition coefficient greater than or equal to −7)			
CC(=CCC1CC=C(C)C1(C)C)CO (stereo not drawn) [Material 1025]	K (Log of liquid dish neat product liquid-air partition coefficient greater than or equal to −7)			
CC1CCCCCCCCCCCCC(=O)C1 (stereo not drawn) [Material 206]		K (Log of liquid dish neat product liquid-air partition coefficient greater than or equal to −7)	K (Log of liquid dish neat product liquid-air partition coefficient greater than or equal to −7)	
C/C(=C/C#N)CCc1ccccc1 [Material 892]	K (Log of liquid dish neat product liquid-air partition coefficient greater than or equal to −7)			
CC1(C)CCc2ccc(CCC=O)cc21 [Material 260]		K (Log of liquid dish neat product liquid-air partition coefficient greater than or equal to −7)	K (Log of liquid dish neat product liquid-air partition coefficient greater than or equal to −7)	
CC=CC(=O)C1C(C)=CCCC1(C)C (stereo not drawn) [Material 1074]			K (Log of liquid dish neat product liquid-air partition coefficient greater than or equal to −7)	
CC(C)c1ccc(CO)cc1 [Material 491]		K (Log of liquid dish neat product liquid-air partition coefficient greater than or equal to −7)		
CCCCCCCCCCC=O [Material 1102]	K (Log of liquid dish neat product liquid-air partition coefficient greater than or equal to −7)			
CC1CCC(C(C)(C)O)CC2=C1CCC2C (stereo not drawn) [Material 292]		K (Log of liquid dish neat product liquid-air partition coefficient greater than or equal to −7)		
CCCCCCCCCCCC(OC)OC [Material 421]		K (Log of liquid dish neat product liquid-air partition coefficient greater than or equal to −7)		
CC1=CCOC(c2ccccc2)C1 (stereo not drawn) [Material 1016]	K (Log of liquid dish neat product liquid-air partition coefficient greater than or equal to −7)			
CC1=CCCC2(C)CCC3CC12OC3(C)C (stereo not drawn) [Material 726]	K (Log of liquid dish neat product liquid-air partition coefficient greater than or equal to −7)		K (Log of liquid dish neat product liquid-air partition coefficient greater than or equal to −7)	
CC=CC(=O)C1C(C)=CCCC1(C)C (stereo not drawn) [Material 880]			K (Log of liquid dish neat product liquid-air partition coefficient greater than or equal to −7)	
C=CC(=C)CCCC(C)(C)OC(C)=O [Material 35]		K (Log of liquid dish neat product liquid-air partition coefficient greater than or equal to −7)		

Compound	Log of liquid dish neat product liquid-air partition coefficient (Comment Code K/L)	Log of liquid dish neat product liquid-air partition coefficient (Comment Code K/L) [1]	Comment Code: Log of liquid dish neat product liquid-air partition coefficient (code letters K, L)	also measured
CC=Cc1ccc(OC(C)=O)c(OC)c1 [Material 213]			K (Log of liquid dish neat product liquid-air partition coefficient greater than or equal to −7)	
C=CC(C)(CCC=C(C)C)OC(C)=O (stereo not drawn) [Material 154]			K (Log of liquid dish neat product liquid-air partition coefficient greater than or equal to −7)	
CCC=C1OC(=O)c2ccccc21 [Material 805]	K (Log of liquid dish neat product liquid-air partition coefficient greater than or equal to −7)			
O=Cc1ccc2c(c1)OCO2 [Material 287]			K (Log of liquid dish neat product liquid-air partition coefficient greater than or equal to −7)	
CCC(C)C(=O)OCCc1ccccc1 (stereo not drawn) [Material 954]	K (Log of liquid dish neat product liquid-air partition coefficient greater than or equal to −7)			
CC(C)C(=O)OCc1ccccc1 [Material 647]			K (Log of liquid dish neat product liquid-air partition coefficient greater than or equal to −7)	
CC(=O)c1oc2ccccc2c1C [Material 61]		K (Log of liquid dish neat product liquid-air partition coefficient greater than or equal to −7)		
CC1=CC2C(C(C)C)CCC(C)(O)C2CC1 (stereo not drawn) [Material 1047]	K (Log of liquid dish neat product liquid-air partition coefficient greater than or equal to −7)			
c1ccc(COCc2ccccc2)cc1 [Material 454]			K (Log of liquid dish neat product liquid-air partition coefficient greater than or equal to −7)	
CC1=CC2C(C(C)C)CCC(C)(O)C2CC1 (stereo not drawn) [Material 1046]	K (Log of liquid dish neat product liquid-air partition coefficient greater than or equal to −7)			
Cc1cccc(Oc2ccccc2)c1 [Material 114]		K (Log of liquid dish neat product liquid-air partition coefficient greater than or equal to −7)		
CCC=CCC1C(=O)CCC1CC(=O)OC (stereo not drawn) [Material 112]		K (Log of liquid dish neat product liquid-air partition coefficient greater than or equal to −7)		
CC(=O)OC(C)CC(C)(C)c1ccccc1 (stereo not drawn) [Material 1134]			K (Log of liquid dish neat product liquid-air partition coefficient greater than or equal to −7)	
C=CC(C)=CCCC(C)(C)O [Material 43]		K (Log of liquid dish neat product liquid-air partition coefficient greater than or equal to −7)		
COC1(C)CCC23CC1C(C)(C)C2CCC3C (stereo not drawn) [Material 565]	K (Log of liquid dish neat product liquid-air partition coefficient greater than or equal to −7)		K (Log of liquid dish neat product liquid-air partition coefficient greater than or equal to −7)	
CC1C(C)(C)C2CCC3CC(C)(C)OC3C2C1(C)C (stereo not drawn) [Material 679]	K (Log of liquid dish neat product liquid-air partition coefficient greater than or equal to −7)		K (Log of liquid dish neat product liquid-air partition coefficient greater than or equal to −7)	
C/C=C(\C)C(=O)OCCc1ccccc1 [Material 960]			K (Log of liquid dish neat product liquid-air partition coefficient greater than or equal to −7)	
CC1CCC2C(C)(C)C3CC12CCC3(C)OC=O (stereo not drawn) [Material 566]	K (Log of liquid dish neat product liquid-air partition coefficient greater than or equal to −7)		K (Log of liquid dish neat product liquid-air partition coefficient greater than or equal to −7)	
C=C(C)C1CCC(C)(O)CC1 (stereo not drawn) [Material 612]	K (Log of liquid dish neat product liquid-air partition coefficient greater than or equal to −7)			
CC(C)(O)Cc1ccccc1 [Material 649]	K (Log of liquid dish neat product liquid-air partition coefficient greater than or equal to −7)			
CC(=O)OCC1CC=C(CCC=C(C)C)CC1 (stereo not drawn) [Material 74]		K (Log of liquid dish neat product liquid-air partition coefficient greater than or equal to −7)		
CC1=CCC(C(C)CC2CCCC2=O)CC1 (stereo not drawn) [Material 69]		K (Log of liquid dish neat product liquid-air partition coefficient greater than or equal to −7)		
CC(=CCC1CC=C(C)C1(C)C)CO (stereo not drawn) [Material 908]	K (Log of liquid dish neat product liquid-air partition coefficient greater than or equal to −7)			
